Measurements reported in paper PMC7009786 (ACS biomaterials science & engineering, 2018).

Assays:
TOV-21G cells = assay: Cell viability after 72 h incubation; format: cell-based; settings: TOV-21G (Pt-sensitive), 56.6 μM, mean of N=3, Pt-NLS purity 87%
ES-2 cells = assay: Cell viability after 72 h incubation; format: cell-based; settings: ES-2 (Pt-sensitive), 18.4 μM, mean of N=3, Pt-NLS purity 87%
[1] = after 150 days; cited from earlier work
[2] = test system: ovarian cancer-derived cell lines; format: cell-based

Compound	decrease of cell viability (TOV-21G cells)	decrease of cell viability (ES-2 cells)	hydrolysed species [1]	cytotoxicity in vitro (in words) [2]
N.N.O=C([O-])C1(C(=O)[O-])CCC1.[Pt+2] [carboplatin, Carboplatin]	40%	20%	3%	
O=C1[O][Pt]2([NH][C@@H]3CCCC[C@H]3[NH]2)[O]C1=O [oxaliplatin]			3%	
PKKKRKV [Pt-NLS hybrid]	~ 50%	~ 30%		high cytotoxicity, significantly superior to carboplatin
